Results from DBAASP.
Converted amounts (≈) assume the structure as drawn. “And” between values parts separate entries of the source, which are not always exact repeats. Identical values can stand only once. Values belong to the compound of their own block, whether it stands above or below them.

What was measured:
Experiment in all cases: ≥ marks a high value that may be exact or a test limit, other limits are often not marked, values filed in µg/mL are converted to µM
Escherichia coli MG1655 = system: Escherichia coli MG1655
Aeromonas hydrophila = system: Aeromonas hydrophila
Vibrio harveyi = system: Vibrio harveyi
Bacillus subtilis 168 = system: Bacillus subtilis 168
[1] = system: Candida albicans F7-39/IDE99
Escherichia coli B = system: Escherichia coli B
Staphylococcus aureus = system: Staphylococcus aureus
[2] = system: Micrococcus luteus CCM 144
Pseudomonas aeruginosa = system: Pseudomonas aeruginosa
Streptococcus mutans = system: Streptococcus mutans
Enterobacter cloacae = system: Enterobacter cloacae
[3] = system: Salmonella enterica subsp. enterica serovar Typhi
[4] = system: Staphylococcus aureus ATCC 25923
[5] = system: Escherichia coli ATCC 25922
[6] = system: Candida albicans ATCC 90028
Escherichia coli = system: Escherichia coli
Bacillus subtilis = system: Bacillus subtilis
[7] = system: Pseudomonas aeruginosa ATCC 27853
[8] = system: Staphylococcus aureus ATCC 6538
[9] = system: Staphylococcus aureus ATCC 43300
[10] = system: Bacillus subtilis ATCC 6633
[11] = system: Escherichia coli ATCC 8739
[12] = system: Cryptococcus neoformans ATCC 208821
[13] = system: Klebsiella pneumoniae ATCC 700603
[14] = system: Acinetobacter baumannii ATCC 19606

SMILES: CC[C@H](C)[C@H](NC(=O)[C@H](C)NC(=O)[C@H](CCCN=C(N)N)NC(=O)[C@H](Cc1cnc[nH]1)NC(=O)[C@@H](NC(=O)[C@H](C)NC(=O)[C@H](CCCN=C(N)N)NC(=O)[C@@H](NC(=O)CNC(=O)[C@H](C)NC(=O)[C@H](CO)NC(=O)[C@@H](NC(=O)[C@H](Cc1c[nH]c2ccccc12)NC(=O)CNC(=O)[C@@H](NC(=O)[C@@H](NC(=O)[C@H](Cc1cnc[nH]1)NC(=O)[C@H](Cc1cnc[nH]1)NC(=O)[C@@H](NC(=O)[C@@H](N)Cc1ccccc1)[C@@H](C)CC)[C@@H](C)CC)[C@@H](C)CC)[C@@H](C)CC)C(C)C)[C@@H](C)CC)C(=O)N[C@@H](Cc1cnc[nH]1)C(N)=O [FIHHIIGWISAGVRAIHRAIH]
- MIC (Escherichia coli MG1655): 8 µM and 16 µM
- MIC (Aeromonas hydrophila): ≥ 128 µM
- MIC (Vibrio harveyi): ≥ 64 µM

SMILES: CC[C@H](C)[C@H](NC(=O)[C@H](C)NC(=O)[C@H](CCCN=C(N)N)NC(=O)[C@H](Cc1cnc[nH]1)NC(=O)[C@@H](NC(=O)[C@H](C)NC(=O)[C@H](CCCN=C(N)N)NC(=O)[C@@H](NC(=O)CNC(=O)[C@H](Cc1cnc[nH]1)NC(=O)[C@H](CO)NC(=O)[C@@H](NC(=O)[C@H](Cc1c[nH]c2ccccc12)NC(=O)CNC(=O)[C@@H](NC(=O)[C@@H](NC(=O)[C@H](Cc1cnc[nH]1)NC(=O)[C@H](Cc1cnc[nH]1)NC(=O)[C@@H](NC(=O)[C@@H](N)Cc1ccccc1)[C@@H](C)CC)[C@@H](C)CC)[C@@H](C)CC)[C@@H](C)CC)C(C)C)[C@@H](C)CC)C(=O)N[C@@H](C)C(N)=O [FIHHIIGWISHGVRAIHRAIA]
- MIC (Aeromonas hydrophila): 16 µM (≈ 38.5 µg/mL)
- MIC (Vibrio harveyi): 16 µM (≈ 38.5 µg/mL)

SMILES: CC[C@H](C)[C@H](NC(=O)[C@H](C)NC(=O)[C@H](CCCN=C(N)N)NC(=O)[C@@H](NC(=O)CNC(=O)[C@H](Cc1cnc[nH]1)NC(=O)[C@H](CO)NC(=O)[C@@H](NC(=O)[C@H](Cc1c[nH]c2ccccc12)NC(=O)CNC(=O)[C@@H](NC(=O)[C@@H](NC(=O)[C@H](Cc1cnc[nH]1)NC(=O)[C@H](Cc1cnc[nH]1)NC(=O)[C@@H](NC(=O)[C@@H](N)Cc1ccccc1)[C@@H](C)CC)[C@@H](C)CC)[C@@H](C)CC)[C@@H](C)CC)C(C)C)C(=O)N[C@@H](C)C(=O)N[C@@H](CCCN=C(N)N)C(=O)N[C@@H](C)C(=O)N[C@H](C(=O)N[C@@H](Cc1cnc[nH]1)C(N)=O)[C@@H](C)CC [FIHHIIGWISHGVRAIARAIH]
- MIC (Escherichia coli MG1655): 8 µM and 16 µM
- MIC (Aeromonas hydrophila): ≥ 128 µM
- MIC (Vibrio harveyi): 16 µM (≈ 38.5 µg/mL)

SMILES: CC[C@H](C)[C@H](NC(=O)CN)C(=O)N[C@@H](Cc1ccccc1)C(=O)N[C@@H](CO)C(=O)N[C@H](C(=O)N[C@H](C(=O)N[C@@H](Cc1ccccc1)C(=O)N[C@@H](CCCCN)C(=O)N[C@@H](C)C(=O)NCC(=O)N[C@@H](CCCCN)C(=O)NCC(=O)N[C@H](C(=O)N[C@H](C(=O)N[C@H]1CSSC[C@@H](C(=O)O)NC(=O)[C@H](CC(C)C)NC(=O)CNC(=O)[C@H]([C@@H](C)O)NC(=O)[C@H](CC(C)C)NC(=O)CNC1=O)C(C)C)[C@@H](C)CC)C(C)C)[C@@H](C)O [GIFSTVFKAGKGIVCGLTGLC]
- MIC [8]: 3.1 µM (≈ 6.42 µg/mL)
- MIC [6]: ≥ 50 µM
- MIC [9]: 12.5 µM (≈ 25.9 µg/mL)
- MIC [10]: 12.5 µM (≈ 25.9 µg/mL)
- MIC [11]: 25 µM (≈ 51.7 µg/mL)

SMILES: C[C@H](NC(=O)[C@@H](NC(=O)[C@H](CCCN=C(N)N)NC(=O)[C@H](CO)NC(=O)CNC(=O)[C@H](CCCN=C(N)N)NC(=O)[C@H](CCC(N)=O)NC(=O)[C@@H](NC(=O)[C@H](CO)NC(=O)[C@H](CCC(N)=O)NC(=O)CNC(=O)[C@H](Cc1cnc[nH]1)NC(=O)CNC(=O)[C@H](CO)NC(=O)[C@H](Cc1cnc[nH]1)NC(=O)[C@H](C)NC(=O)[C@@H](N)Cc1cnc[nH]1)[C@@H](C)O)[C@@H](C)O)C(=O)NCC(=O)N[C@@H](CCCN=C(N)N)C(=O)O [HAHSGHGQSTQRGSRTAGR]
- MIC [12]: 16.1 µM (≈ 32 µg/mL)
- MIC [5]: > 16.1 µM
- MIC [6]: 16.1 µM (≈ 32 µg/mL)
- MIC [9]: > 16.1 µM
- MIC [13]: > 16.1 µM
- MIC [14]: > 16.1 µM
- MIC [7]: > 16.1 µM

SMILES: CC(C)C[C@H](NC(=O)CNC(=O)[C@H](CO)NC(=O)CNC(=O)[C@H](CCCN=C(N)N)NC(=O)[C@H](CCCN=C(N)N)NC(=O)CN)C(=O)NCC(=O)N[C@@H](CCCN=C(N)N)C(=O)N[C@@H](CO)C(=O)N[C@@H](CO)C(=O)N[C@@H](CO)C(=O)N[C@@H](CCCN=C(N)N)C(=O)NCC(=O)N[C@@H](CCC(N)=O)C(=O)N[C@@H](CCCN=C(N)N)C(=O)NCC(=O)N[C@@H](CO)C(=O)NCC(=O)N[C@@H](CO)C(=O)NCC(=O)N[C@@H](CCCN=C(N)N)C(=O)O [GRRGSGLGRSSSRGQRGSGSGR]
- MIC [12]: 14.7 µM (≈ 32 µg/mL)
- MIC [5]: > 14.7 µM
- MIC [6]: 14.7 µM (≈ 32 µg/mL)
- MIC [9]: > 14.7 µM
- MIC [13]: > 14.7 µM
- MIC [14]: > 14.7 µM
- MIC [7]: > 14.7 µM

Further lines, results first:

- MIC (Bacillus subtilis 168): 13.3 µM (≈ 18.9 µg/mL)
- MIC [1]: 11.3 µM (≈ 16 µg/mL)
- MIC (Escherichia coli B): ≥ 70 µM
- MIC (Staphylococcus aureus): 100 µM (≈ 142 µg/mL)
- MIC [2]: 10.8 µM (≈ 15.3 µg/mL)
- MIC (Pseudomonas aeruginosa): 93.3 µM (≈ 132 µg/mL)
SMILES: CC[C@H](C)[C@H](NC(=O)[C@H](C)NC(=O)CNC(=O)[C@H](Cc1c[nH]c2ccccc12)NC(=O)[C@H](CC(N)=O)NC(=O)[C@@H](N)CC(C)C)C(=O)N[C@@H](CC(C)C)C(=O)N[C@@H](CCCCN)C(=O)N[C@@H](Cc1cnc[nH]1)C(=O)N[C@H](C(=O)N[C@@H](CCCCN)C(=O)N[C@@H](CCCCN)C(N)=O)[C@@H](C)CC [LNWGAILKHIKK]

- MIC (Streptococcus mutans): ≥ 53.3 µM
SMILES: NCCCC[C@H](NC(=O)[C@H](Cc1c[nH]c2ccccc12)NC(=O)[C@H](Cc1c[nH]c2ccccc12)NC(=O)[C@H](Cc1c[nH]c2ccccc12)NC(=O)[C@H](CCCN=C(N)N)NC(=O)[C@H](CCCN=C(N)N)NC(=O)[C@@H](N)CCCN=C(N)N)C(=O)O [RRRWWWK]

- MIC (Streptococcus mutans): ≥ 183 µM
SMILES: CC[C@H](C)[C@H](NC(=O)[C@H](CCC(N)=O)NC(=O)[C@H](CCCCN)NC(=O)[C@@H](NC(=O)[C@H](CCC(=O)O)NC(=O)[C@H](CCC(N)=O)NC(=O)[C@H](CC(C)C)NC(=O)[C@@H](NC(=O)[C@@H](N)CCCN=C(N)N)C(C)C)[C@@H](C)CC)C(=O)N[C@@H](CC(C)C)C(=O)N[C@@H](CCCCN)C(=O)O [RVLQEIKQILK]

- MIC (Enterobacter cloacae): ≥ 123 µM
- MIC [3]: 3.84 µM (≈ 8 µg/mL)
- MIC [4]: 0.961 µM (≈ 2 µg/mL)
- MIC [5]: 30.7 µM (≈ 64 µg/mL)
- MIC [6]: 30.7 µM (≈ 64 µg/mL)
- MIC (Staphylococcus aureus): 61.5 µM (≈ 128 µg/mL)
- MIC (Escherichia coli): 15.4 µM (≈ 32 µg/mL)
- MIC (Bacillus subtilis): ≥ 61.5 µM
- MIC [7]: 61.5 µM (≈ 128 µg/mL)
- MIC (Pseudomonas aeruginosa): 7.69 µM (≈ 16 µg/mL)
SMILES: CC(C)C[C@H](NC(=O)[C@H](CCCCN)NC(=O)[C@H](CCCN=C(N)N)NC(=O)[C@H](Cc1ccccc1)NC(=O)[C@H](Cc1ccccc1)NC(=O)[C@H](CCCCN)NC(=O)[C@H](CCCCN)NC(=O)[C@H](Cc1ccccc1)NC(=O)[C@H](CCCN=C(N)N)NC(=O)[C@H](CCCCN)NC(=O)[C@@H](NC(=O)[C@H](CC(C)C)NC(=O)[C@@H](N)CCCCN)C(C)C)C(=O)N[C@@H](CCCCN)C(=O)N[C@@H](CCCCN)C(=O)N[C@@H](CO)C(N)=O [KLVKRFKKFFRKLKKS]

- MIC (Bacillus subtilis 168): ≥ 100 µM
- MIC [1]: ≥ 100 µM
- MIC (Escherichia coli B): ≥ 100 µM
- MIC (Staphylococcus aureus): > 100 µM
- MIC [2]: ≥ 100 µM
- MIC (Pseudomonas aeruginosa): > 100 µM
SMILES: CC(C)C[C@H](NC(=O)CNC(=O)[C@H](C)NC(=O)CNC(=O)[C@H](Cc1c[nH]c2ccccc12)NC(=O)[C@H](CC(N)=O)NC(=O)[C@@H](N)CC(C)C)C(=O)N[C@@H](CCCCN)C(=O)N[C@@H](Cc1cnc[nH]1)C(=O)NCC(=O)NCC(=O)N[C@@H](CCCCN)C(N)=O [LNWGAGLKHGGK]
